How the values were obtained:
[1] = molecular target: T1, RXRα (Homo sapiens, UniProt P19793); assay: Retinoid receptor competition binding assay, RXRα; settings: competition with 1.0 nM [3H]-9-cis-RA
T1 construct: The full-length cDNA clones for RARα, RARβ, RARγ and RXRα were cloned into the prokaryotic expression vector pET29; S-Tag; made in house; host or cells: prokaryotic host (pET29 vector)
T1 sequence (P19793 1-462): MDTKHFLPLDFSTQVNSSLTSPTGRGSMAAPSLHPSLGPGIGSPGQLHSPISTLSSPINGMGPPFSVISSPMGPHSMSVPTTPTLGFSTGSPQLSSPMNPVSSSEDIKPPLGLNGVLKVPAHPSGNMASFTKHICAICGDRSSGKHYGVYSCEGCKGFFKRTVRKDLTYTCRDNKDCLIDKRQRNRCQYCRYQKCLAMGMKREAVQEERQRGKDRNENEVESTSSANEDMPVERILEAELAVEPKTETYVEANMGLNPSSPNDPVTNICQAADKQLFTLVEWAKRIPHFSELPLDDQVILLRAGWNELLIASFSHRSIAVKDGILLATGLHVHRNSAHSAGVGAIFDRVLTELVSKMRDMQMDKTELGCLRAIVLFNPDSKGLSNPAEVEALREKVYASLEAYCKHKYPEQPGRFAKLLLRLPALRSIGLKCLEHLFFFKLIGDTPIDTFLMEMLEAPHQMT

[2] = molecular target: T2, RARγ (Mus musculus, UniProt P18911); assay: Transactivation assay (RARE-CAT reporter, CV-1 cells), RARγ; type: cell-based; settings: 50% of maximal activity obtained with 10^−6 M all-trans-RA
T2 construct: expressed in transfected cells; host or cells: CV-1 cells
T2 sequence (P18911 1-458): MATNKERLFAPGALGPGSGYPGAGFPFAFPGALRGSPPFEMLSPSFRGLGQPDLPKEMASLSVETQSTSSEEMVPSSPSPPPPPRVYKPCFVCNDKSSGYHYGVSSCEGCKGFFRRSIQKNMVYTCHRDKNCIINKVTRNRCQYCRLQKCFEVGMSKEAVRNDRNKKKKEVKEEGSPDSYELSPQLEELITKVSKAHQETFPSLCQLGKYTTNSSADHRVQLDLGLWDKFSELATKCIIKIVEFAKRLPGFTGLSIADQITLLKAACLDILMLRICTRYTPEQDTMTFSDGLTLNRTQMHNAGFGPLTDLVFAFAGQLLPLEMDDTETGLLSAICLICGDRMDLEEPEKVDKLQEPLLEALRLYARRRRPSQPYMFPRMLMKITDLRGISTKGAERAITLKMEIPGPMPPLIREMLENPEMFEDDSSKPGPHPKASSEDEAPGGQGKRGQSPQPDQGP
Protocol: (§1) Briefly, CV-1 cells were cotransfected with 4 μg RAR subtype (RARα, RARβ or RARγ) expression vector construct in pSG5, 4 μg RARE-CAT reporter DNA and 1 μg pCMV-β-gal DNA. Twenty-four hours following transfection, the cells were treated with various concentrations of each RAMBA ranging from 10^−11–10^−5 M along with an ethanol carrier control. Additional cells were treated with 10^−6 M all-trans-RA for normalisation. Twenty-four hours later, the cells were harvested and CAT and β-gal activities were assayed.

[3] = molecular target: T3, RARα (Mus musculus, UniProt P11416); assay: Transactivation assay (RARE-CAT reporter, CV-1 cells), RARα; type: cell-based; settings: 50% of maximal activity obtained with 10^−6 M all-trans-RA
T3 sequence (P11416 1-462): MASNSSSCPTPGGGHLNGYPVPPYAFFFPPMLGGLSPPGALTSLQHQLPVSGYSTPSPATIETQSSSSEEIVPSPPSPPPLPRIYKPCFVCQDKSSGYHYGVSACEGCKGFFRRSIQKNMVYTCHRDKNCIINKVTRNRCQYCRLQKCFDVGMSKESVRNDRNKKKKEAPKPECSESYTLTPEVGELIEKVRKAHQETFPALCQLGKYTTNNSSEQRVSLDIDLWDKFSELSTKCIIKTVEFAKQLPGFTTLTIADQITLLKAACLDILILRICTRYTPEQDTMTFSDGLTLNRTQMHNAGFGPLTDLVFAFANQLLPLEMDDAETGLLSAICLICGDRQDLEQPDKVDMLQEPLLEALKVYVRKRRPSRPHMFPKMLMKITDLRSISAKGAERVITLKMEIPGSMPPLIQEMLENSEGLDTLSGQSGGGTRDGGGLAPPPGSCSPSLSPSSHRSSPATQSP
Protocol: as §1

[4] = molecular target: T2, RARγ; assay: Retinoid receptor competition binding assay, RARγ; settings: competition with 1.0 nM [3H]-all-trans-RA
[5] = tested on: T47D cells; assay: Cell cycle analysis by flow cytometry (PI), T47D; type: cell-based, human; settings: 5 μM, 6 days (4-HPR 4 days)
Protocol: MCF-7 and T47D cells were plated in T-25 flasks and allowed to adhere for about 18 h. The cells were then synchronised by growing them in low-serum OPTI-MEM I medium for 2 days. […] After 6-day treatment, the cells were trypsinised, washed twice with PBS, centrifuged at 2500 r.p.m. to obtain a cell pellet. The cells (about 1–2 × 10^6) were fixed with 3 ml of 70% ethanol (by adding drop-wise and taking care that the cells are not clumped together). Cells were kept at −20°C until further analysis (at least overnight). Next, cells (∼1–2 × 10^6) were stained with 1 ml of propidium iodide (PI) (50 μg ml^−1)/RNase (100 μg ml^−1) solution and after about half an hour the fluorescence of stained nuclei (15 000 events) was analysed by flow cytometry (Becton Dickinson FACScan Instrument and quantification by Modfit LT version 3.1 software) with excitation wavelength of 488 nm. The percentage of G1, S, G2/M and sub-G1 (apoptotic cells) in the population of treated and untreated cells were determined.

[6] = molecular target: T4, RARβ (Mus musculus, UniProt P22605); assay: Retinoid receptor competition binding assay, RARβ; settings: competition with 1.0 nM [3H]-all-trans-RA
T4 construct: expressed in transfected cells; host or cells: CV-1 cells
T4 sequence (P22605 1-448 isoform P22605-3): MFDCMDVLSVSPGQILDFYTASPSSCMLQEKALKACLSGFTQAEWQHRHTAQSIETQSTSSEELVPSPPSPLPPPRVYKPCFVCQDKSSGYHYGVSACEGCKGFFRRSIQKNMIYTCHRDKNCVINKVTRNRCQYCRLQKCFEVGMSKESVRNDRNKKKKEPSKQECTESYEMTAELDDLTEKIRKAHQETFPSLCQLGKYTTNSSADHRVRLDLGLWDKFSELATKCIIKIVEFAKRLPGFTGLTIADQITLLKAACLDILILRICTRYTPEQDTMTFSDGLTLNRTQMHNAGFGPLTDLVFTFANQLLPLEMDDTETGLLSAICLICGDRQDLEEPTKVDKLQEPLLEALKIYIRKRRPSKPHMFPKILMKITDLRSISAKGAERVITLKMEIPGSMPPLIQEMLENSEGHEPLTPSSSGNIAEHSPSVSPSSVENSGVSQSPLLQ

With `CC1=C(/C=C/C(C)=C/C=C/C(C)=C/C(=O)Nc2ccc(O)cc2)C(C)(C)CCC1n1ccnc1` (stereo not shown) [VN/66-1] as the compound, how does the IC50 [1] read?
Its IC50 is over 500 nM.

And the EC50 [2]?
Its EC50 is over 10000 nM.

What about the EC50 [3] of the same compound?
The EC50 was over 10000 nM.

What about the IC50 [4] of the same compound?
Its IC50 is over 1000 nM.

And the “G2/M (%)” value [5]?
Its value is 19.57±0.21%.

What about the “Go/G1 (%)” value [5] of the same compound?
The value was 80.44±0.20%.

And the “S (%)” value [5]?
The value was 0%.

What about the “Sub-G1 (%)” value [5] of the same compound?
The value was 26.41±1.18%.

And the IC50 [6]?
Its IC50 is over 1000 nM.

With `CC1=C(/C=C/C(C)=C/C=C/C(C)=C/C(=O)O)C(C)(C)CCC1` [ATRA, all-trans-retinoic acid, reference compound] as the compound, how does the “G2/M (%)” value [5] read?
The value was 13.03±4.06%.

What about the “Go/G1 (%)” value [5] of the same compound?
Its value is 83.89±0.96%.

And the “S (%)” value [5]?
The value was 3.1±1.3%.

What about the “Sub-G1 (%)” value [5] of the same compound?
Its value is 17.12±4.06%.

`CC1=C(/C=C/C(C)=C/C=C/C(C)=C\C(=O)Nc2ccc(O)cc2)C(C)(C)CCC1n1ccnc1` (stereo not shown) [VN/69-1] was tested. Which IC50 [1] did it give?
The IC50 was over 500 nM.

And the EC50 [2]?
Its EC50 is over 10000 nM.

What about the EC50 [3] of the same compound?
The EC50 was over 10000 nM.

And the IC50 [4]?
The IC50 was over 1000 nM.

What about the “G2/M (%)” value [5] of the same compound?
Its value is 21.01±0.99%.

And the “Go/G1 (%)” value [5]?
Its value is 78.99±0.99%.

What about the “S (%)” value [5] of the same compound?
Its value is 0%.

And the “Sub-G1 (%)” value [5]?
The value was 24.34±1.24%.

And the IC50 [6]?
The IC50 was over 1000 nM.

How did the IC50 [1] turn out when `CC1=C(/C=C/C(C)=C/C=C/C(C)=C/C(=O)O)C(C)(C)CCC1n1ccnc1` (stereo not shown) [VN/14-1] was run?
Its IC50 is over 500 nM.

What about the EC50 [2] of the same compound?
Its EC50 is 1000 nM.

What about the EC50 [3] of the same compound?
Its EC50 is 300 nM.

And the IC50 [4]?
Its IC50 is 16 nM.

What about the “G2/M (%)” value [5] of the same compound?
Its value is 20.85±3.75%.

What about the “Go/G1 (%)” value [5] of the same compound?
Its value is 77.98±2.56%.

What about the “S (%)” value [5] of the same compound?
The value was 1.18±1.0%.

What about the “Sub-G1 (%)” value [5] of the same compound?
The value was 22.38±2.95%.

And the IC50 [6]?
The IC50 was 200 nM.
